{
  "source": "paper PMC9430770",
  "about": "(Microbiology Spectrum, 2022)",
  "molecules": {"B1": {"name": "C. albicans Eno1 (enzyme, UniProt P30575 1-440, looked up)", "chain": "MSYATKIHARYVYDSRGNPTVEVDFTTDKGLFRSIVPSGASTGVHEALELRDGDKSKWLGKGVLKAVANVNDIIAPALIKAKIDVVDQAKIDEFLLSLDGTPNKSKLGANAILGVSLAAANAAAAAQGIPLYKHIANISNAKKGKFVLPVPFQNVLNGGSHAGGALAFQEFMIAPTGVSTFSEALRIGSEVYHNLKSLTKKKYGQSAGNVGDEGGVAPDIKTPKEALDLIMDAIDKAGYKGKVGIAMDVASSEFYKDGKYDLDFKNPESDPSKWLSGPQLADLYEQLISEYPIVSIEDPFAEDDWDAWVHFFERVGDKIQIVGDDLTVTNPTRIKTAIEKKAANALLLKVNQIGTLTESIQAANDSYAAGWGVMVSHRSGETEDTFIADLSVGLRSGQIKTGAPARSERLAKLNQILRIEEELGSEAIYAGKDFQKASQL", "notes": "also called CaEno1; enolase; source: E. coli BL21(DE3), purified (Ni-NTA, Superdex 200 SEC)"}},
  "key": {"[1]": {"test_system": "Candida albicans 103", "experiment": "Checkerboard microdilution assay with fluconazole", "assay_type": "cell-based", "source_text": "Ta b l e S3. Interaction of fluconazole ( FLC) and BE probes against isolates of Candida albicans\nCompounds Molecular structure Individual action Interaction MIC(μg/ mL ) FICI Mode of\nMIC (μg /mL) FLC Compounds interaction"}, "[2]": {"test_system": "C. albicans eno1/eno1 mutant strain", "experiment": "Galleria mellonella infection model, eno1/eno1 strain", "assay_type": "in vivo, Candida albicans", "settings": "G. mellonella, 10 mg/kg", "procedure": "To assess whether Eno1 is a therapeutic target of BE, we constructed a homozygous deletion strain for the ENO1 gene (eno1/eno1). We then investigated the difference in the antifungal efficacy of BE on the infections caused by the parent strain SN152 and the eno1/eno1 strain in the Galleria mellonella infection model. We divided the G. mellonella into 5 groups, with 10 larvae in each group. All 10 larvae died after a 24-h infection with the SN152 strain, while only 3 larvae died after 24 h when infected with the eno1/eno1 strain; the remaining larvae died within 7 days. Compared with the group infected with the parent strain, the survival time of the group infected with the eno1/eno1 strain was longer (P < 0.01) (Fig. 4A). […] The survival rate of larvae in the BE (10 mg/kg of body weight)-treated, SN152 strain-infected group was extended by 30%, compared with that in the group infected with the SN152 strain but without antifungal drug treatment (P < 0.001) (Fig. 4B). […] All 10 larvae in the BE-treated group died within 6 days, and all 10 larvae without BE treatment were killed within 7 days (Fig. 4C). However, FLC (10 mg/kg) can extend the survival rate of larvae infected by the eno1/eno1 strain by 60% (P < 0.01) (Fig. 4D) compared with the group infected with the eno1/eno1 strain without antifungal drug treatment.\nFIG 4 Eno1 acts as a therapeutic target of BE. […] Each curve represents a group of 10 larvae (n =10) monitored daily for survival for up to 10 days after infection. […]\nVirulence testing of C. albicans was done in Galleria mellonella as described previously ([56]). […] After growth in YPD media overnight at 30°C and 200 rpm, C. albicans SN152 cells or eno1/eno1 mutant cells were washed with PBS 3 times and diluted to the desired concentration (1 × 10^7 cells/mL) determined by counting with a hemacytometer. […] The death of G. mellonella was assessed daily and analyzed statistically by the Kaplan-Meier method (log-rank test)."}, "[3]": {"biological_target": "T1, CaEno1 (Candida albicans, UniProt P30575)", "T1 sequence (P30575 1-440)": "B1 chain", "settings": "read-out: IC50 inhibiting enolase activity; CaEno1 30 nM, 2-PG 1 mM", "experimental": "Data are shown as the means ± standard deviations. […] Data are shown as the means ± standard deviations.\nEnolase activity was determined by direct spectrophotometric assay via measuring the increase of absorbance at 240 nm of phosphoenolpyruvate (PEP) as described previously with some modifications ([54]). Briefly, the reaction buffer (pH 7.0) containing 10 mM imidazole, 200 mM KCl, and 0.5 mM MgAc in a final reaction volume of 100 μL was mixed with Eno1 (a final concentration of 30 nM), followed by the mixture of 2-phosphoglycerate (2-PG) (Yuanye Biotech Shanghai) with a final concentration of 1 mM. The enolase activity of Eno1 was evaluated by measuring the increase of absorbance (OD240) at room temperature for 10 min. […] The well-known enolase inhibitor sodium fluoride (NaF; Sangon Biotech) was initiated from 5 mM and used as a control ([29]). Inhibition curves were fitted by nonlinear regression (four parameters) using the GraphPad Prism software."}, "[4]": {"biological_target": "the molecule itself", "experiment": "crystal structure; X-ray crystals of CaEno1 alone and of CaEno1 with 2-PG, sitting drop at 13°C, space group C2; four Eno1 chains (two dimers) in the asymmetric unit"}},
  "data": [
    {"molecule": "C#CCOc1cc(C2(C(F)(F)F)N=N2)ccc1COc1cc2oc(-c3ccccc3)cc(=O)c2c(O)c1N", "note": "[BE-1]", "values": [
      {"measurement": "Interaction MIC FLC", "setting": "[1]; MIC of FLC in combination with the compound", "value": "> 64", "unit": "mg/L"},
      {"measurement": "Interaction MIC Compounds", "setting": "[1]; MIC of the compound in combination with FLC", "value": 1, "unit": "mg/L"},
      {"measurement": "FICI", "setting": "[1]; combination with FLC", "value": 1.01},
      {"measurement": "Mode of interaction", "setting": "[1]; combination with FLC, FLC-resistant C. albicans", "value": "Indifference"},
      {"measurement": "Individual action MIC", "setting": "[1]; compound alone", "value": "> 64", "unit": "mg/L"}
    ]},
    {"molecule": "OC(Cn1cncn1)(Cn1cncn1)c1ccc(F)cc1F", "note": "[FLC, fluconazole]", "values": [
      {"measurement": "survival rate of larvae extended versus infected group without drug treatment", "setting": "[2]", "value": 60, "unit": "%"}
    ]},
    {"molecule": "[F-].[Na+]", "note": "[NaF, sodium fluoride]", "values": [
      {"measurement": "IC50", "setting": "[3]", "value": "504 ± 7.1", "unit": "µM"}
    ]},
    {"molecule": "B1", "values": [
      {"measurement": "stoichiometry N", "setting": "[4]", "value": 2}
    ]}
  ]
}
